Experimental data taken from article PMC5218480 (PLoS ONE, 2017).

Test system: MV-4-11 cells
Experiment: Gene expression microarray analysis (Affymetrix PrimeView) and GSEA
Type: cell-based, human
Parameters: RFU PODN (11730768_x_at) / Fold change /veh PODN (11730768_x_at) / RFU LINC00158 (11744669_a_at) / Fold change /veh LINC00158 (11744669_a_at) / RFU DUSP10 (11751237_a_at) / Fold change /veh DUSP10 (11751237_a_at) / RFU ID3 (11757404_x_at) / Fold change /veh ID3 (11757404_x_at) / RFU PLEKHG5 (11737974_s_at) / Fold change /veh PLEKHG5 (11737974_s_at) / RFU LRRC4B (11730491_at) / Fold change /veh LRRC4B (11730491_at) / RFU GIMAP4 (11747438_a_at) / Fold change /veh GIMAP4 (11747438_a_at) / RFU KRT8 (11758183_x_at) / Fold change /veh KRT8 (11758183_x_at) / RFU CNN1 (11734310_a_at) / Fold change /veh CNN1 (11734310_a_at) / RFU VPS37D (11726825_at) / Fold change /veh VPS37D (11726825_at) / RFU C10orf10 (11716522_x_at) / Fold change /veh C10orf10 (11716522_x_at) / RFU KIR2DL2 /// KIR2DL4 /// KIR2DL5A /// KIR2DL5B /// KIR2DS1 /// KIR2DS2 /// KIR2DS3 /// KIR2DS4 /// KIR3DL3 /// KIR3DL3 /// KIR3DS1 (11738374_at) / Fold change /veh KIR2DL2 /// KIR2DL4 /// KIR2DL5A /// KIR2DL5B /// KIR2DS1 /// KIR2DS2 /// KIR2DS3 /// KIR2DS4 /// KIR3DL3 /// KIR3DL3 /// KIR3DS1 (11738374_at) / RFU C1QL1 (11718748_at) / Fold change /veh C1QL1 (11718748_at) / RFU TMPRSS4 (11747572_a_at) / Fold change /veh TMPRSS4 (11747572_a_at) / RFU HAMP (11756126_x_at) / Fold change /veh HAMP (11756126_x_at) / RFU RNFT2 (11725882_a_at) / Fold change /veh RNFT2 (11725882_a_at) / RFU NR4A2 (11747474_a_at) / Fold change /veh NR4A2 (11747474_a_at) / RFU ABCC12 (11746883_a_at) / Fold change /veh ABCC12 (11746883_a_at) / RFU TMEM136 (11760407_x_at) / Fold change /veh TMEM136 (11760407_x_at) / RFU CLDN22 /// WWC2 (11732394_at) / Fold change /veh CLDN22 /// WWC2 (11732394_at) / RFU HLA-DPB1 (11760878_x_at) / Fold change /veh HLA-DPB1 (11760878_x_at) / RFU SPINT1 (11716480_a_at) / Fold change /veh SPINT1 (11716480_a_at) / RFU GAP43 (11754022_s_at) / Fold change /veh GAP43 (11754022_s_at) / RFU A4GNT (11735810_at) / Fold change /veh A4GNT (11735810_at) / RFU PRB3 (11715151_x_at) / Fold change /veh PRB3 (11715151_x_at) / RFU TUBB4B (11761932_at) / Fold change /veh TUBB4B (11761932_at) / RFU CAPN14 (11732068_a_at) / Fold change /veh CAPN14 (11732068_a_at) / RFU TMCC2 (11721928_a_at) / Fold change /veh TMCC2 (11721928_a_at) / RFU IRGQ (11745062_a_at) / Fold change /veh IRGQ (11745062_a_at) / RFU FAM174B (11720279_a_at) / Fold change /veh FAM174B (11720279_a_at) / RFU TMPRSS4 (11748680_a_at) / Fold change /veh TMPRSS4 (11748680_a_at) / RFU FAM212B (11763350_a_at) / Fold change /veh FAM212B (11763350_a_at) / RFU PLEKHG5 (11743358_a_at) / Fold change /veh PLEKHG5 (11743358_a_at) / RFU ZSCAN30 (11745921_a_at) / Fold change /veh ZSCAN30 (11745921_a_at) / RFU CMKLR1 (11741424_a_at) / Fold change /veh CMKLR1 (11741424_a_at) / RFU LOC101060620 /// MAPK8IP1 (11723275_at) / Fold change /veh LOC101060620 /// MAPK8IP1 (11723275_at) / RFU SPTSSB (11747773_x_at) / Fold change /veh SPTSSB (11747773_x_at) / RFU PRSS12 (11739890_at) / Fold change /veh PRSS12 (11739890_at) / RFU BIN1 (11741810_x_at) / Fold change /veh BIN1 (11741810_x_at) / RFU WNT11 (11732464_a_at) / Fold change /veh WNT11 (11732464_a_at) / RFU C10orf10 (11716521_a_at) / Fold change /veh C10orf10 (11716521_a_at) / RFU C5orf56 (11738089_at) / Fold change /veh C5orf56 (11738089_at) / RFU CYB561 (11721691_x_at) / Fold change /veh CYB561 (11721691_x_at) / RFU ANKRD19P (11752326_a_at) / Fold change /veh ANKRD19P (11752326_a_at) / RFU OR2T12 /// OR2T33 /// OR2T8 (11738714_s_at) / Fold change /veh OR2T12 /// OR2T33 /// OR2T8 (11738714_s_at) / RFU VCAN (11748164_a_at) / Fold change /veh VCAN (11748164_a_at) / RFU JSRP1 (11732532_at) / Fold change /veh JSRP1 (11732532_at) / RFU KRTAP10-11 (11738290_x_at) / Fold change /veh KRTAP10-11 (11738290_x_at) / RFU MYO3A (11730013_a_at) / Fold change /veh MYO3A (11730013_a_at) / RFU EBF3 (11725865_a_at) / Fold change /veh EBF3 (11725865_a_at) / RFU CAMK2N1 (11719241_x_at) / Fold change /veh CAMK2N1 (11719241_x_at) / RFU C5orf56 (11738088_a_at) / Fold change /veh C5orf56 (11738088_a_at) / RFU OLFML3 (11715873_a_at) / Fold change /veh OLFML3 (11715873_a_at) / RFU LOC100653217 /// NTM (11731650_a_at) / Fold change /veh LOC100653217 /// NTM (11731650_a_at) / RFU MAPK11 (11762145_a_at) / Fold change /veh MAPK11 (11762145_a_at) / RFU FIZ1 (11724087_x_at) / Fold change /veh FIZ1 (11724087_x_at) / RFU OASL (11726364_x_at) / Fold change /veh OASL (11726364_x_at) / RFU SOX15 (11748057_x_at) / Fold change /veh SOX15 (11748057_x_at) / RFU CD79A (11719716_a_at) / Fold change /veh CD79A (11719716_a_at) / RFU HIST1H1D (11736915_at) / Fold change /veh HIST1H1D (11736915_at) / RFU CASKIN2 (11723855_a_at) / Fold change /veh CASKIN2 (11723855_a_at) / RFU LOC730098 (11760151_x_at) / Fold change /veh LOC730098 (11760151_x_at) / RFU OR4N2 (11742367_at) / Fold change /veh OR4N2 (11742367_at) / RFU PRRT2 (11749266_a_at) / Fold change /veh PRRT2 (11749266_a_at) / RFU SNX32 (11753110_a_at) / Fold change /veh SNX32 (11753110_a_at) / RFU CDHR5 (11726645_a_at) / Fold change /veh CDHR5 (11726645_a_at) / RFU RCAN1 (11760418_a_at) / Fold change /veh RCAN1 (11760418_a_at) / RFU FAM167A (11723789_a_at) / Fold change /veh FAM167A (11723789_a_at) / RFU FAM26E (11764081_at) / Fold change /veh FAM26E (11764081_at) / RFU ISYNA1 (11749810_s_at) / Fold change /veh ISYNA1 (11749810_s_at) / RFU ACY1 (11761880_at) / Fold change /veh ACY1 (11761880_at) / RFU 11764098_at / Fold change /veh 11764098_at / RFU SAMD14 (11745864_x_at) / Fold change /veh SAMD14 (11745864_x_at) / RFU NPB (11741838_a_at) / Fold change /veh NPB (11741838_a_at) / RFU TMPRSS6 (11731388_a_at) / Fold change /veh TMPRSS6 (11731388_a_at) / RFU KRTAP10-2 (11738614_at) / Fold change /veh KRTAP10-2 (11738614_at) / RFU ARHGAP8 /// PRR5-ARHGAP8 (11727945_x_at) / Fold change /veh ARHGAP8 /// PRR5-ARHGAP8 (11727945_x_at) / RFU KRTAP5-7 /// NADSYN1 (11734609_at) / Fold change /veh KRTAP5-7 /// NADSYN1 (11734609_at) / RFU RASL12 (11751679_a_at) / Fold change /veh RASL12 (11751679_a_at) / RFU CDKN2B (11736163_a_at) / Fold change /veh CDKN2B (11736163_a_at) / RFU PRF1 (11729649_at) / Fold change /veh PRF1 (11729649_at) / RFU, ZNF638 /// ZNF638-IT1 / Fold change vs veh, ZNF638 /// ZNF638-IT1 / RFU, PANK3 / Fold change vs veh, PANK3 / RFU, SH3YL1 / Fold change vs veh, SH3YL1 / RFU, ZEB2 / Fold change vs veh, ZEB2 / RFU, NRIP1 / Fold change vs veh, NRIP1 / RFU, PTTG1IP / Fold change vs veh, PTTG1IP / RFU, CAPN2 / Fold change vs veh, CAPN2 / RFU, MED14 / Fold change vs veh, MED14 / RFU, SNORA58 / Fold change vs veh, SNORA58 / RFU, C1orf63 / Fold change vs veh, C1orf63 / RFU, LRRFIP1 / Fold change vs veh, LRRFIP1 / RFU, NDUFAF7 / Fold change vs veh, NDUFAF7 / RFU, SLC12A2 / Fold change vs veh, SLC12A2 / RFU, IBTK / Fold change vs veh, IBTK / RFU, ESF1 / Fold change vs veh, ESF1 / Fold change vs veh, TMEM50B / RFU, TAOK1 / Fold change vs veh, TAOK1 / RFU, ACBD3 / Fold change vs veh, ACBD3 / RFU, TMA16 / Fold change vs veh, TMA16 / RFU, RWDD3 / Fold change vs veh, RWDD3 / RFU, BCAT1 / Fold change vs veh, BCAT1 / RFU, EDEM3 / Fold change vs veh, EDEM3 / RFU, TMEM33 / Fold change vs veh, TMEM33 / RFU, WDR75 / Fold change vs veh, WDR75 / RFU, AHCTF1 / Fold change vs veh, AHCTF1 / RFU, TFRC / Fold change vs veh, TFRC / RFU, ZDHHC17 / Fold change vs veh, ZDHHC17 / RFU, NOM1 / Fold change vs veh, NOM1 / RFU, ARL8B / Fold change vs veh, ARL8B / RFU, ZBTB11 / Fold change vs veh, ZBTB11 / RFU, TAMM41 / Fold change vs veh, TAMM41 / RFU, KIAA1704 /// LOC100996395 / Fold change vs veh, KIAA1704 /// LOC100996395 / RFU, ING1 / Fold change vs veh, ING1 / RFU, TRMT61B / Fold change vs veh, TRMT61B / RFU, FUBP3 / Fold change vs veh, FUBP3 / RFU, TP53 / Fold change vs veh, TP53 / RFU, TNKS2 / Fold change vs veh, TNKS2 / RFU, ZFP14 / Fold change vs veh, ZFP14 / RFU, ACTR2 / Fold change vs veh, ACTR2 / RFU, PPP3R1 / Fold change vs veh, PPP3R1 / RFU, PIK3R1 / Fold change vs veh, PIK3R1 / RFU, HNRNPA1 / Fold change vs veh, HNRNPA1 / RFU, RNF170 / Fold change vs veh, RNF170 / RFU, ZNF28 / Fold change vs veh, ZNF28 / RFU, RNGTT / Fold change vs veh, RNGTT / RFU, OGT / Fold change vs veh, OGT / RFU, BRD1 / Fold change vs veh, BRD1 / RFU, MARS / Fold change vs veh, MARS / RFU, ZNF655 / Fold change vs veh, ZNF655 / RFU, FAHD1 / Fold change vs veh, FAHD1 / RFU, BDP1 / Fold change vs veh, BDP1 / RFU, LRRCC1 / Fold change vs veh, LRRCC1 / RFU, ARID1A / Fold change vs veh, ARID1A / RFU, ZNF146 / Fold change vs veh, ZNF146 / RFU, ZNF330 / Fold change vs veh, ZNF330 / RFU, GPN3 / Fold change vs veh, GPN3 / RFU, C9orf123 / Fold change vs veh, C9orf123 / RFU, N4BP2L2 / Fold change vs veh, N4BP2L2 / RFU, ARFIP1 / Fold change vs veh, ARFIP1 / RFU, FAM179B / Fold change vs veh, FAM179B / RFU, BCL10 / Fold change vs veh, BCL10 / RFU, UHRF1BP1L / Fold change vs veh, UHRF1BP1L / RFU, BET1 / Fold change vs veh, BET1 / RFU, CNOT2 / Fold change vs veh, CNOT2 / RFU, ZNF268 / Fold change vs veh, ZNF268 / Fold change vs veh, ZNF507 / RFU, DGCR2 / Fold change vs veh, DGCR2 / RFU, WDSUB1 / Fold change vs veh, WDSUB1 / Fold change vs veh, HSP90B1 /// MIR3652 / RFU, ADSS / Fold change vs veh, ADSS / RFU, GK / Fold change vs veh, GK / RFU, ZNF148 / Fold change vs veh, ZNF148 / RFU, TAF9 / Fold change vs veh, TAF9 / RFU, SLC1A5 / Fold change vs veh, SLC1A5 / RFU, SLMO2 / Fold change vs veh, SLMO2 / RFU, ABCC4 / Fold change vs veh, ABCC4 / RFU, LOC101060439 /// RAP1B / Fold change vs veh, LOC101060439 /// RAP1B / RFU, RFX7 / Fold change vs veh, RFX7 / RFU, GTPBP10 / Fold change vs veh, GTPBP10 / RFU, CNEP1R1 / Fold change vs veh, CNEP1R1 / RFU, BIVM-ERCC5 /// ERCC5 / Fold change vs veh, BIVM-ERCC5 /// ERCC5 / RFU, ILF3 / Fold change vs veh, ILF3 / RFU 11762660_at / Fold change /veh 11762660_at / RFU VCAN (11757783_s_at) / Fold change /veh VCAN (11757783_s_at) / RFU DDX43 (11728927_at) / Fold change /veh DDX43 (11728927_at) / RFU KRT8 (11758188_x_at) / Fold change /veh KRT8 (11758188_x_at) / RFU NKD1 (11759106_at) / Fold change /veh NKD1 (11759106_at) / RFU SRD5A1 (11742802_a_at) / Fold change /veh SRD5A1 (11742802_a_at) / RFU TPSAB1 /// TPSB2 (11721975_s_at) / Fold change /veh TPSAB1 /// TPSB2 (11721975_s_at) / RFU GSTM3 (11746129_a_at) / Fold change /veh GSTM3 (11746129_a_at) / RFU IL23R (11737362_x_at) / Fold change /veh IL23R (11737362_x_at) / RFU TMEM51 (11727254_a_at) / Fold change /veh TMEM51 (11727254_a_at) / RFU PIWIL2 (11732686_x_at) / Fold change /veh PIWIL2 (11732686_x_at) / RFU ORM1 (11744905_x_at) / Fold change /veh ORM1 (11744905_x_at) / RFU CCDC152 (11743942_at) / Fold change /veh CCDC152 (11743942_at) / RFU ECM1 (11717891_a_at) / Fold change /veh ECM1 (11717891_a_at) / RFU IL23R (11748794_a_at) / Fold change /veh IL23R (11748794_a_at) / RFU TNFAIP8L3 (11732012_x_at) / Fold change /veh TNFAIP8L3 (11732012_x_at) / RFU MBOAT4 (11741988_at) / Fold change /veh MBOAT4 (11741988_at) / RFU 11764193_at / Fold change /veh 11764193_at / RFU TMEM53 (11763286_at) / Fold change /veh TMEM53 (11763286_at) / RFU MAGEB2 (11727129_at) / Fold change /veh MAGEB2 (11727129_at) / RFU TMEM200A (11744735_a_at) / Fold change /veh TMEM200A (11744735_a_at) / RFU CCDC152 (11751479_a_at) / Fold change /veh CCDC152 (11751479_a_at) / RFU FAM211A (11726209_a_at) / Fold change /veh FAM211A (11726209_a_at) / RFU RGS16 (11746705_a_at) / Fold change /veh RGS16 (11746705_a_at) / RFU VCAN (11755009_s_at) / Fold change /veh VCAN (11755009_s_at) / RFU RHOB (11743442_s_at) / Fold change /veh RHOB (11743442_s_at) / RFU RGS16 (11720943_a_at) / Fold change /veh RGS16 (11720943_a_at) / RFU RGS16 (11720944_at) / Fold change /veh RGS16 (11720944_at) / RFU, VPS4B / Fold change vs veh, VPS4B / RFU, CREB1 / Fold change vs veh, CREB1 / RFU, DNAJC13 / Fold change vs veh, DNAJC13 / RFU, GNAQ / Fold change vs veh, GNAQ / RFU, CDK5R1 / Fold change vs veh, CDK5R1 / RFU, ZRANB3 / Fold change vs veh, ZRANB3 / RFU, CUL4A / Fold change vs veh, CUL4A / RFU, CCNY / Fold change vs veh, CCNY / RFU, UFL1 / Fold change vs veh, UFL1 / RFU, COG3 / Fold change vs veh, COG3 / RFU, DIAPH2 / Fold change vs veh, DIAPH2 / RFU, SKA2 / Fold change vs veh, SKA2 / RFU, AFF3 / Fold change vs veh, AFF3 / RFU, LMF1 / Fold change vs veh, LMF1 / RFU, IPO11 / Fold change vs veh, IPO11 / RFU, DFFB / Fold change vs veh, DFFB / RFU, FOXP1 / Fold change vs veh, FOXP1 / RFU, CARD8 / Fold change vs veh, CARD8 / RFU, STRN3 / Fold change vs veh, STRN3 / RFU, ADK / Fold change vs veh, ADK / RFU, RASSF2 / Fold change vs veh, RASSF2 / RFU, WIPF1 / Fold change vs veh, WIPF1 / RFU, LARP1B / Fold change vs veh, LARP1B / RFU, RASA1 / Fold change vs veh, RASA1 / RFU, RB1 / Fold change vs veh, RB1 / RFU, PPFIA1 / Fold change vs veh, PPFIA1 / RFU, MAT2A / Fold change vs veh, MAT2A / RFU, CCT5 / Fold change vs veh, CCT5 / RFU, WDR92 / Fold change vs veh, WDR92 / RFU, CUX1 / Fold change vs veh, CUX1 / RFU, TTC7A / Fold change vs veh, TTC7A / RFU, TMEM135 / Fold change vs veh, TMEM135 / RFU, DEPTOR / Fold change vs veh, DEPTOR / RFU, CPM / Fold change vs veh, CPM / RFU, DNAJB6 / Fold change vs veh, DNAJB6 / RFU, CACNA2D3 / Fold change vs veh, CACNA2D3 / RFU, DTX4 / Fold change vs veh, DTX4 / RFU, TFCP2 / Fold change vs veh, TFCP2 / RFU, GMCL1 /// GMCL1P1 / Fold change vs veh, GMCL1 /// GMCL1P1 / RFU, AEBP2 / Fold change vs veh, AEBP2 / RFU, SNHG1 /// SNORD22 /// SNORD25 /// SNORD26 /// SNORD27 /// SNORD28 /// SNORD29 /// SNORD31 / Fold change vs veh, SNHG1 /// SNORD22 /// SNORD25 /// SNORD26 /// SNORD27 /// SNORD28 /// SNORD29 /// SNORD31 / Fold change (Aza/veh), C12orf56 (ProbeSet 11735607_a_at) / Fold change (ACY-1035/veh), C12orf56 (ProbeSet 11735607_a_at) / Fold change (Aza/veh), FGFR1OP (ProbeSet 11751329_s_at) / Fold change (ACY-1035/veh), FGFR1OP (ProbeSet 11751329_s_at) / Fold change (Aza/veh), VPS36 (ProbeSet 11739960_a_at) / Fold change (ACY-1035/veh), VPS36 (ProbeSet 11739960_a_at) / RFU SYPL1 (11715823_x_at) / Fold change /veh SYPL1 (11715823_x_at) / RFU IGFBP7 (11715501_s_at) / Fold change /veh IGFBP7 (11715501_s_at) / RFU REEP3 (11722064_at) / Fold change /veh REEP3 (11722064_at) / RFU IGLL1 (11728026_x_at) / Fold change /veh IGLL1 (11728026_x_at): dose or concentration left out as unconfirmed
Details: ProbeSet 11755159_a_at; LIST D

Structure (SMILES): Nc1ccc(-c2cccs2)cc1NC(=O)c1ccc2c(c1)cc(C1CC1)n2CCN1CCOCC1 [ACY-1035]
- Fold change vs veh, COG3: 0.96
